Results as given in ChEMBL document CHEMBL3112408, “1,2,3-triazole-, arylamino- and thio-substituted 1,4-naphthoquinones: potent antitumor activity, electrochemical aspects, and bioisosteric replacement of C-ring-modified lapachones” (Bioorg Med Chem, 2014).

What was measured:
[1] = test system: L929; assay: Cytotoxicity against mouse L929 cells assessed as cell viability after 72 hrs by MTT assay; format: ADME, cell-based; conditions: L929, 72 h
[2] = Cytotoxicity against human HCT8 cells assessed as cell viability after 72 hrs by MTT assay; format: functional, cell-based; conditions: HCT-8, 72 h
[3] = Cytotoxicity against human Hs578T cells assessed as cell viability after 72 hrs by MTT assay; format: functional, cell-based; conditions: Hs-578T
[4] = test system: HL-60; assay: Cytotoxicity against human HL60 cells assessed as cell viability after 72 hrs by MTT assay; format: functional, cell-based; conditions: HL-60, 72 h
[5] = test system: MX1; assay: Cytotoxicity against human MX1 cells assessed as cell viability after 72 hrs by MTT assay; format: functional, cell-based; conditions: MX1, 72 h
[6] = test system: MCF7; assay: Cytotoxicity against human MCF7 cells assessed as cell viability after 72 hrs by MTT assay; format: functional, cell-based; conditions: MCF7, 72 h
[7] = test system: MDA-MB-435; assay: Cytotoxicity against human MDA-MB-435 cells assessed as cell viability after 72 hrs by MTT assay; format: functional, cell-based; conditions: MDA-MB-435, 72 h
[8] = test system: SF-295; assay: Cytotoxicity against human SF295 cells assessed as cell viability after 72 hrs by MTT assay; format: functional, cell-based; conditions: SF-295, 72 h
[9] = test system: DU-145; assay: Cytotoxicity against human DU145 cells assessed as cell viability after 72 hrs by MTT assay; format: functional, cell-based; conditions: DU-145, 72 h
[10] = test system: PBMC; assay: Cytotoxicity against human PBMC assessed as cell viability after 72 hrs by MTT assay; format: cell-based
[11] = test system: V79; assay: Cytotoxicity against chinese hamster V79 cells assessed as cell viability after 72 hrs by MTT assay; format: cell-based; conditions: Cricetulus griseus, V79, 72 h
[12] = test system: OVCAR-8; assay: Cytotoxicity against human OVCAR8 cells assessed as cell viability after 72 hrs by MTT assay; format: functional, cell-based; conditions: OVCAR-8, 72 h
[13] = test system: PC-3; assay: Cytotoxicity against human PC3 cells assessed as cell viability after 72 hrs by MTT assay; format: functional, cell-based; conditions: PC-3, 72 h
[14] = test system: HCT-116; assay: Cytotoxicity against human HCT116 cells assessed as cell viability after 72 hrs by MTT assay; format: functional, cell-based; conditions: HCT-116, 72 h

SMILES	IC50 [1] [µM]	IC50 [2] [µM]	IC50 [3] [µM]	IC50 [4] [µM]	IC50 [5] [µM]	IC50 [6] [µM]	IC50 [7] [µM]	IC50 [8] [µM]	IC50 [9] [µM]	IC50 [10] [µM]	IC50 [11] [µM]	IC50 [12] [µM]	IC50 [13] [µM]	IC50 [14] [µM]
CC1(C)OC2=C(C(=O)c3ccccc3C2=O)C1n1cc(C2CCCCC2)nn1 (stereo not drawn)	6.62	6.7	4.95	2.7	4.21	5.78	2.76	3.18	5.48	7.36	6.12	5.38	4.29	5.51
O=C1C=C(NCc2cn(CCCCN3C(=O)c4ccccc4C3=O)nn2)C(=O)c2ccccc21	> 10	> 10	> 10	> 10	> 10	> 10	> 10	> 10	> 10	> 10	> 10	> 10	> 10	> 10
CCCCCc1cn(C2CC(C)(C)OC3=C2C(=O)c2ccccc2C3=O)nn1 (stereo not drawn)	4.98	4.45	3.08	1.37	2.4	3.16	2.77	2.77	2.48	7.77	5.59	6.67	3.66	4.93
O=C1C(Cl)=C(NCc2cn(CCN3C(=O)c4ccccc4C3=O)nn2)C(=O)c2ccccc21	> 10	> 10	> 10	> 10	> 10	> 10	> 10	> 10	> 10	> 10	> 10	> 10	> 10	> 10
CC(=O)OC[C@H]1OC(n2cc(CNC3=CC(=O)c4ccccc4C3=O)nn2)[C@H](OC(C)=O)[C@@H](OC(C)=O)[C@@H]1OC(C)=O (single isomer, unassigned)	> 8	> 8	> 8	> 8	> 8	> 8	> 8	> 8	> 8	> 8	> 8	> 8	> 8	> 8
O=C1C(Cl)=C(NCc2cn(CN3C(=O)c4ccccc4C3=O)nn2)C(=O)c2ccccc21	> 11	> 11	> 11	> 11	> 11	> 11	> 11	> 11	> 11	> 11	> 11	> 11	> 11	> 11
CC(=O)OC[C@H]1OC(n2cc(CNC3=C(Br)C(=O)c4ccccc4C3=O)nn2)[C@H](OC(C)=O)[C@@H](OC(C)=O)[C@@H]1OC(C)=O (stereo partly drawn)	3.66	2.2	3.68	1.19	3.59	2.91	2.67	2.83	4.07	4.76	3.59	2.8	> 7	4.39
O=C1C=C(n2cc(CNC3=C(Cl)C(=O)c4ccccc4C3=O)nn2)C(=O)c2ccccc21	6.83	7.08	4.68	3.42	4.02	7.76	3.33	5.55	4.92	10.2	7.1	6.02	5.42	6.65
CC1(C)CC(n2cc(C3CCCCC3)nn2)C2=C(O1)C(=O)c1ccccc1C2=O (stereo not drawn)	12.5	12.3	10.9	10.4	> 12	> 12	10.7	11.3	11.7	> 12	12	15.1	11.2	10.5
CC1(C)OC2=C(C(=O)c3ccccc3C2=O)C1n1cc(-c2ccccc2)nn1 (stereo not drawn)	8.4	9.07	5.76	4.34	5.92	6.95	4.95	3.44	4.68	8.02	7.62	7.22	5.82	8.27
O=C1C(Br)=C(NCc2cn(-c3cccc([N+](=O)[O-])c3)nn2)C(=O)c2ccccc21	> 11	> 11	> 11	> 11	> 11	> 11	> 11	> 11	> 11	> 11	> 11	> 11	> 11	> 11
O=C1C=C(NCc2cn(C3=CC(=O)c4ccccc4C3=O)nn2)C(=O)c2ccccc21	5.21	2.7	5.68	0.8	3.7	3.67	3.09	3.82	5.34	6.77	6.21	2.86	5.02	> 12
CC1(C)CC(Nc2ccc([N+](=O)[O-])cc2)C2=C(O1)C(=O)c1ccccc1C2=O (stereo not drawn)	1.37	4.97	5.95	4.26	5.52	7.16	5.42	5.95	6.13	2.01	1.61	6.66	5.79	5.66
O=C1C(Br)=C(NCc2cn(CCCN3C(=O)c4ccccc4C3=O)nn2)C(=O)c2ccccc21	> 9	> 9	> 9	> 9	> 9	> 9	> 9	> 9	> 9	> 9	> 9	> 9	> 9	> 9
O=C1C=C(NCc2cn(-c3cccc([N+](=O)[O-])c3)nn2)C(=O)c2ccccc21	> 13	> 13	> 13	> 13	> 13	> 13	> 13	> 13	> 13	> 13	> 13	> 13	> 13	> 13
CCC(C)(O)c1cn(C2CC(C)(C)OC3=C2C(=O)c2ccccc2C3=O)nn1 (stereo not drawn)	3.85	2.73	3.04	2.12	3.41	3.12	2.1	4.22	3.36	4.77	4.06	4.77	3.07	3.2
O=C1C=C(NCc2cn(CCN3C(=O)c4ccccc4C3=O)nn2)C(=O)c2ccccc21	> 11	> 11	> 11	> 11	> 11	> 11	> 11	> 11	> 11	> 11	> 11	> 11	> 11	> 11
